# pIC50: −log10 of the molar value. Where two headings read alike, the source gives them in different places.
# Tests used:
# BRM = BRM (Homo sapiens, UniProt P51531); assay: ATPase catalytic activity assay (ADP-Glo), BRM; settings: 30 nM BRM, 400 μM ATP; for IC50: BRM ATPase: IC50 (uM)
# BRG-1 = BRG-1 (Homo sapiens, UniProt P51532); assay: ATPase catalytic activity assay (ADP-Glo), BRG-1; settings: for Emax: 1 h, read-out: BRG1 Max % Inhibition, ADP-Glo, 30 nM BRG-1, 400 μM ATP
# [1] = ADP-Glo, 30 nM BRG-1, 400 μM ATP
# Sequence of BRM (P51531 whole entry): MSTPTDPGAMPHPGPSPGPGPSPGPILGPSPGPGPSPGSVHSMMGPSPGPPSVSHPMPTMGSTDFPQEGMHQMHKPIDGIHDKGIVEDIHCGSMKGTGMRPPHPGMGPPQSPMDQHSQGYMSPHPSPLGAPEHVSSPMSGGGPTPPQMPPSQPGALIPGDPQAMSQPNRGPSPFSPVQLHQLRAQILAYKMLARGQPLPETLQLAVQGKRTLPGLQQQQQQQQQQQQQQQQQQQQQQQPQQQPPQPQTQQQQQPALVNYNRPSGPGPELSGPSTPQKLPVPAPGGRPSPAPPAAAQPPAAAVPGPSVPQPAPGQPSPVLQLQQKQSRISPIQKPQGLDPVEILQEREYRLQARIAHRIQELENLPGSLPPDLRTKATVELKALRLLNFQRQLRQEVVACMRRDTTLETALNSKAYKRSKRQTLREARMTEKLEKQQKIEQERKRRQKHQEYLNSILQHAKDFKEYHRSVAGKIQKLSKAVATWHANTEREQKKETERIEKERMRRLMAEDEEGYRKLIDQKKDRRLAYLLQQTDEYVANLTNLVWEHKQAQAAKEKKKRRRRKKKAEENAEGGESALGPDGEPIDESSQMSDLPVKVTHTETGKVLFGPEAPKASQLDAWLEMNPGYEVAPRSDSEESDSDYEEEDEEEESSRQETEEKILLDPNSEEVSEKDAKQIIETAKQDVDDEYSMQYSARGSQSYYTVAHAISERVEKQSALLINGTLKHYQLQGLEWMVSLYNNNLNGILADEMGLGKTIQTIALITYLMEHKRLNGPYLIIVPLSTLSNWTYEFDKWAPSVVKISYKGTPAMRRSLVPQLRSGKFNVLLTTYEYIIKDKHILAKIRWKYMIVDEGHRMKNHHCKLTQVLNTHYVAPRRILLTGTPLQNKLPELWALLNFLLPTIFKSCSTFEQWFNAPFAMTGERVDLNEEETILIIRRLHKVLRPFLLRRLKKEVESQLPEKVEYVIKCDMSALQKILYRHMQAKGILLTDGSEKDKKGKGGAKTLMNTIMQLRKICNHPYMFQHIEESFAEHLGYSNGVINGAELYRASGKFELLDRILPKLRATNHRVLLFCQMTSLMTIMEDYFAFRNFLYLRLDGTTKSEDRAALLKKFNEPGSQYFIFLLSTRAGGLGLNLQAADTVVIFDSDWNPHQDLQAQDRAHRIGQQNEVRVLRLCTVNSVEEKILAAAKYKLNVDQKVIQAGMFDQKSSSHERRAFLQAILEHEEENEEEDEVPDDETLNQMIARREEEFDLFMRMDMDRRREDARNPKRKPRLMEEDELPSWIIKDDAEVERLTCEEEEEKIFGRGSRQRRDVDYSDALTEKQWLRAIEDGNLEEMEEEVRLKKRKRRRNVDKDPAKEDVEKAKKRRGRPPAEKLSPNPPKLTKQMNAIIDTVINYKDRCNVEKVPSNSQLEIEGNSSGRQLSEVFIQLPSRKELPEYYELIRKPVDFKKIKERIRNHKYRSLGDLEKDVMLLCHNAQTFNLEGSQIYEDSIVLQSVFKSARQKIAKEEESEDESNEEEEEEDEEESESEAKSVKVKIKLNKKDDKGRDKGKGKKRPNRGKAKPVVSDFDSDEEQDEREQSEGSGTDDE
# Sequence of BRG-1 (P51532 whole entry): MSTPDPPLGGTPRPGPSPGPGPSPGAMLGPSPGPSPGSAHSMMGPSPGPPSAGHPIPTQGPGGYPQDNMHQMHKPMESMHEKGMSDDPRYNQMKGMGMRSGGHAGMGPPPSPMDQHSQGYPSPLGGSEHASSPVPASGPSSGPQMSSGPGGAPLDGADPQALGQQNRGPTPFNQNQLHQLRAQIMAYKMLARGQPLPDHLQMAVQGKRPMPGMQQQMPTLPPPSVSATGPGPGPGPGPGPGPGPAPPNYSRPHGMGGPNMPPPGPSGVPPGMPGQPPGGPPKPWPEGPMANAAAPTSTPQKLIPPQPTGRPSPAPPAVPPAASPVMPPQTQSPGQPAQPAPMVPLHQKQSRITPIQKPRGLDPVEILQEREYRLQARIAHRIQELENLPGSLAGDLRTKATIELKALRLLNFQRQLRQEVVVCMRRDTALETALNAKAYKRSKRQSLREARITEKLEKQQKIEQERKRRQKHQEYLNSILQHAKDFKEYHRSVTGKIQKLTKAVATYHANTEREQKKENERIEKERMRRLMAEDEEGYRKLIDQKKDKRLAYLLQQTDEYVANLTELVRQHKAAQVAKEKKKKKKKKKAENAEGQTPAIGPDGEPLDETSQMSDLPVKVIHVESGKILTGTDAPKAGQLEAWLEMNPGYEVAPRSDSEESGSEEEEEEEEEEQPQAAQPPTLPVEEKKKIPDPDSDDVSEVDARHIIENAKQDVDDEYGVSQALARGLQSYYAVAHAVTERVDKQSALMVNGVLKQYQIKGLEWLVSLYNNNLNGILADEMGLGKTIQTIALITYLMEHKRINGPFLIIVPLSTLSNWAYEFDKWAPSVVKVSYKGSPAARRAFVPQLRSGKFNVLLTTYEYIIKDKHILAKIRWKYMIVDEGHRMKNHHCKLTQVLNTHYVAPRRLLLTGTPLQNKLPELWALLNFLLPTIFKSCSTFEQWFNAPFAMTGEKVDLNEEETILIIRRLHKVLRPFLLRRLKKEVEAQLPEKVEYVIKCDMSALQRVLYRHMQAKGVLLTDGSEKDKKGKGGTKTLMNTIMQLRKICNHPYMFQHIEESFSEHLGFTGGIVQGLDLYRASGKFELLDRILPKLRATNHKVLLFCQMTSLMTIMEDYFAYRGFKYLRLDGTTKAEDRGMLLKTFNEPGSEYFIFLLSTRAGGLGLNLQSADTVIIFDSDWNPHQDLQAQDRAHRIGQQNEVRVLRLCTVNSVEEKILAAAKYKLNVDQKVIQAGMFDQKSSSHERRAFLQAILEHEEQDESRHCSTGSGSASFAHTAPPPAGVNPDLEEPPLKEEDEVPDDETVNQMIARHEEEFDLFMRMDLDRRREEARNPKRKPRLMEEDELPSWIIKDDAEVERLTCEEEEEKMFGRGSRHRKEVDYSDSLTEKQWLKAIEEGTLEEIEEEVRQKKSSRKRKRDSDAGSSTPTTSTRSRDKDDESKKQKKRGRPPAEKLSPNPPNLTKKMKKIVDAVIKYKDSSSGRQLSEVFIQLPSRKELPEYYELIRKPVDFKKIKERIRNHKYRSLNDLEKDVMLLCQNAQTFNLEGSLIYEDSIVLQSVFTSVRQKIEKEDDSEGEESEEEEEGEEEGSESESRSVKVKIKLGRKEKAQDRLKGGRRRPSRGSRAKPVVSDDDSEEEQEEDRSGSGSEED
Structure (SMILES),BRM Max % Inhibition (BRM) [%],IC50 (BRM) [µM],pIC50 (BRG-1),Emax (BRG-1) [%],BRG1 Max % Inhibition (BRG-1; [1]) [%],"pIC50 (BRG-1; read-out: BRG1 ATPase: IC50, ADP-Glo, 30 nM BRG-1, 400 μM ATP)"
C[C@@]1(C#N)COCc2ccc(C(=O)NCc3cc(C4CCN(c5cccc(C(F)F)n5)C4)ccn3)cc21 (stereo partly shown) [Compound 69],90,0.1 to 0.5,6.00 to 6.30,50,–,–
COc1ccc([C@H]2C[C@@H](c3ccnc(CNC(=O)c4ccc5c(c4)[C@](C)(C#N)COC5)c3)C2)cc1 [Compound 70],94,0.1 to 0.5,6.00 to 6.30,55,–,–
COc1cccc([C@H]2C[C@@H](c3ccnc(CNC(=O)c4ccc5c(c4)[C@](C)(C#N)COC5)c3)C2)c1 [Compound 71],89,0.1 to 0.5,< 6.00,42,–,–
COc1ccc([C@H]2C[C@H](c3ccnc(CNC(=O)c4ccc5c(c4)[C@](C)(C#N)COC5)c3)C2)cc1 [Compound 72],94,< 0.1,6.30 to 7.00,91,–,–
Cn1ccc2c(c1=O)CCN(c1ccnc(CNC(=O)c3ccc4c(c3)[C@](C)(C#N)COC4)c1)C2 [Compound 73],84,0.1 to 0.5,< 6.00,44,–,–
COc1cccc([C@H]2C[C@H](c3ccnc(CNC(=O)c4ccc5c(c4)[C@](C)(C#N)COC5)c3)C2)c1 [Compound 74],98,< 0.1,6.30 to 7.00,87,–,–
C[C@@]1(C#N)COCc2ccc(C(=O)NCc3cc(N4CCc5ccccc5C4)cnn3)cc21 [Compound 75],97,0.1 to 0.5,6.00 to 6.30,54,–,–
CN(C)c1cccc([C@H]2C[C@H](c3ccnc(CNC(=O)c4ccc5c(c4)[C@](C)(C#N)COC5)c3)C2)n1 [Compound 76],98,0.1 to 0.5,< 6.00,91,–,–
C[C@@]1(C#N)COCc2ccc(C(=O)NCc3cc([C@H]4C[C@H](c5cccc(C6CC6)n5)C4)ccn3)cc21 [Compound 77],99,0.1 to 0.5,6.00 to 6.30,102,–,–
C[C@@]1(C#N)COCc2ccc(C(=O)NCc3cc([C@H]4C[C@@H](c5cccc(C6CC6)n5)C4)ccn3)cc21 [Compound 78],96,< 0.1,6.00 to 6.30,79,–,–
C[C@@]1(C#N)COCc2ccc(C(=O)NCc3cc([C@H]4C[C@H](c5cccc(N6CCOCC6)n5)C4)ccn3)cc21 [Compound 79],96,0.1 to 0.5,6.00 to 6.30,74,–,–
C[C@@]1(C#N)COCc2ccc(C(=O)NCc3cc([C@H]4C[C@@H](c5cccc(N6CCOCC6)n5)C4)ccn3)cc21 [Compound 80],83,0.1 to 0.5,< 6.00,29,–,–
C[C@@H]1CN(c2cccc([C@H]3C[C@H](c4ccnc(CNC(=O)c5ccc6c(c5)[C@](C)(C#N)COC6)c4)C3)n2)C[C@H](C)O1 [Compound 81],98,< 0.1,6.30 to 7.00,90,–,–
C[C@@H]1CN(c2cccc([C@H]3C[C@@H](c4ccnc(CNC(=O)c5ccc6c(c5)[C@](C)(C#N)COC6)c4)C3)n2)C[C@H](C)O1 [Compound 82],88,0.1 to 0.5,< 6.00,38,–,–
COCCNC(=O)c1cccc(C#Cc2ccnc(CNC(=O)c3ccc4c(c3)[C@](C)(C#N)COC4)c2)c1 [Compound 83],101,< 0.1,> 7.00,99,–,–
CN(C)C(=O)c1cccc(C#Cc2ccnc(CNC(=O)c3ccc4c(c3)[C@](C)(C#N)COC4)c2)c1 [Compound 84],89,0.1 to 0.5,6.00 to 6.30,53,–,–
C[C@@]1(C#N)COCc2ccc(C(=O)NCc3cc4nc(-c5ccccc5)ccc4cn3)cc21 [Compound 85],98,< 0.1,–,–,77,< 6.00
C[C@@]1(F)COCc2ccc(C(=O)NCc3cc4nc(-c5ccccc5)ccc4cn3)cc21 [Compound 86],96,0.1 to 0.5,< 6.00,62,–,–
C[C@H](NC(=O)c1ccc2c(c1)[C@](C)(C#N)COC2)c1cc2nc(-c3ccccc3)ccc2cn1 [Compound 87],88,0.5 to 1,< 6.00,87,–,–
C[C@@H](NC(=O)c1ccc2c(c1)[C@](C)(C#N)COC2)c1cc2nc(-c3ccccc3)ccc2cn1 [Compound 88],96,0.1 to 0.5,< 6.00,73,–,–
C[C@@]1(O)COCc2ccc(C(=O)NCc3cc4nc(-c5ccccc5)ccc4cn3)cc21 [Compound 89],76,> 1,< 6.00,15,–,–
C[C@@]1(CO)CCc2ccc(C(=O)NCc3cc4nc(-c5ccccc5)ccc4cn3)cc21 [Compound 90],82,> 1,< 6.00,24,–,–

Structure (SMILES),BRM Max % Inhibition (BRM) [%],IC50 (BRM) [µM],pIC50 (BRG-1),Emax (BRG-1) [%],BRG1 Max % Inhibition (BRG-1; [1]) [%],"pIC50 (BRG-1; read-out: BRG1 ATPase: IC50, ADP-Glo, 30 nM BRG-1, 400 μM ATP)"
COc1cccc(-c2ccc3cnc(CNC(=O)c4ccc5c(c4)[C@](C)(C#N)COC5)cc3n2)c1 [Compound 91],97,< 0.1,6.00 to 6.30,85,–,–
C[C@@]1(C#N)COCc2ccc(C(=O)NCc3cc4c(cn3)CCN(c3ccccc3)C4)cc21 [Compound 92],95,0.1 to 0.5,< 6.00,64,–,–
COC(=O)c1cccc(-c2ccc3cnc(CNC(=O)c4ccc5c(c4)[C@](C)(C#N)COC5)cc3n2)c1 [Compound 93],99,< 0.1,6.30 to 7.00,93,–,–
C[C@@]1(C#N)COCc2ccc(C(=O)NCc3cc4nc(C5CC5)ccc4cn3)cc21 [Compound 94],83,> 1,< 6.00,45,–,–
C[C@@]1(C#N)COCc2ccc(C(=O)NCc3cc4nc(-c5cc(F)cc(N6CCC6)c5)ccc4cn3)cc21 [Compound 95],99,< 0.1,6.30 to 7.00,93,–,–
CN1C[C@@](C)(C#N)c2cc(C(=O)NCc3cc4nc(-c5ccccc5)ccc4cn3)ccc21 [Compound 96],84,> 1,< 6.00,20,–,–
C[C@@]1(C#N)COCc2ccc(C(=O)NCc3cc4nc(-c5ccccc5)ccc4cn3)cc21 [Compound 97],93,0.1 to 0.5,< 6.00,–,47,–
C[C@@]1(C#N)COCc2ccc(C(=O)NCc3cc4nc(-c5cccc(C(F)F)c5)ccc4cn3)cc21 [Compound 98],97,< 0.1,< 6.00,81,–,–
C[C@@]1(C#N)COc2ccc(C(=O)NCc3cc4nc(-c5ccccc5)ccc4cn3)cc21 [Compound 99],63,> 1,< 6.00,22,–,–
O=C(NCc1cc2nc(-c3ccccc3)ccc2cn1)c1cccc(C2(C(F)F)COC2)c1 [Compound 100],83,0.5 to 1,< 6.00,25,–,–
COc1cc(F)cc(-c2ccc3cnc(CNC(=O)c4ccc5c(c4)[C@](C)(C#N)COC5)cc3n2)c1 [Compound 101],98,< 0.1,6.00 to 6.30,78,–,–
C[C@@]1(C#N)COCc2ccc(C(=O)NCc3cc4nc(-c5ccccn5)ccc4cn3)cc21 [Compound 102],93,0.1 to 0.5,< 6.00,56,–,–
C[C@@]1(C#N)COCc2ccc(C(=O)NCc3cc4nc(N5CCCCC5)ccc4cn3)cc21 [Compound 103],94,0.1 to 0.5,< 6.00,71,–,–
Cn1cc(-c2ccc3cnc(CNC(=O)c4ccc5c(c4)[C@](C)(C#N)COC5)cc3n2)cn1 [Compound 104],84,0.5 to 1,< 6.00,33,–,–
Cn1ncc2cc(-c3ccc4cnc(CNC(=O)c5ccc6c(c5)[C@](C)(C#N)COC6)cc4n3)ccc21 [Compound 105],98,< 0.1,6.00 to 6.30,87,–,–
C[C@@]1(C#N)COCc2ccc(C(=O)NCc3cnc4ccc(-c5ccccc5)nc4c3)cc21 [Compound 106],80,> 1,< 6.00,32,–,–
C[C@@]1(C#N)COCc2ccc(C(=O)NCc3cc4nc(C5CCOCC5)ccc4cn3)cc21 [Compound 107],71,> 1,< 6.00,16,–,–
COc1ccc(-c2ccc3cnc(CNC(=O)c4ccc5c(c4)[C@](C)(C#N)COC5)cc3n2)cc1 [Compound 108],99,< 0.1,6.00 to 6.30,91,–,–
C[C@@]1(CO)COCc2ccc(C(=O)NCc3cc4nc(-c5ccccc5)ccc4cn3)cc21 [Compound 109],75,> 1,< 6.00,11,–,–
Cn1ncc2ccc(-c3ccc4cnc(CNC(=O)c5ccc6c(c5)[C@](C)(C#N)COC6)cc4n3)cc21 [Compound 110],99,< 0.1,6.00 to 6.30,86,–,–
COc1ccccc1-c1ccc2cnc(CNC(=O)c3ccc4c(c3)[C@](C)(C#N)COC4)cc2n1 [Compound 111],101,< 0.1,6.30 to 7.00,93,–,–

# — patent publication US12441726B2, “Compounds and uses thereof” (Foghorn Therapeutics Inc., priority 2020, dated 2025)
